Results from ChEMBL document CHEMBL5247612, “Medicinal chemistry strategies targeting PRMT5 for cancer therapy” (Eur J Med Chem, 2022).
One block for each compound: values may come before it.

Assays:
[1] = target: T1, Protein arginine N-methyltransferase 5 (Homo sapiens, UniProt O14744); assay: Inhibition of PRMT5 human PRMT5 using Biotinylated H4 derived peptide and [3H]-SAM as substrate by radioactive methylation assay
A-375 [2] = assay: Antiproliferation activity against human A-375 cells assessed as cell growth inhibition; assay type: functional, cell-based
[3] = target: T1, Protein arginine N-methyltransferase 5; assay: Inhibition of PRMT5 (unknown origin) assessed as enzymatic activity by AlphaLISA assay
A-375 [4] = assay: Anticancer activity against human A-375 cells in xenograft model assessed as tumor growth inhibition at 10 mg/kg, qd on a 4 day-on/3 day-off schedule for 26 days relative to control; assay type: functional; details: A-375, 624 h, time 26 day, read-out: TGI
[5] = target: T2, Protein arginine N-methyltransferase 1 (Homo sapiens, UniProt Q99873); assay: Inhibition of human PRMT1 by fluorescence-based SAHH-coupled assay
T2 sequence (Q99873 whole entry): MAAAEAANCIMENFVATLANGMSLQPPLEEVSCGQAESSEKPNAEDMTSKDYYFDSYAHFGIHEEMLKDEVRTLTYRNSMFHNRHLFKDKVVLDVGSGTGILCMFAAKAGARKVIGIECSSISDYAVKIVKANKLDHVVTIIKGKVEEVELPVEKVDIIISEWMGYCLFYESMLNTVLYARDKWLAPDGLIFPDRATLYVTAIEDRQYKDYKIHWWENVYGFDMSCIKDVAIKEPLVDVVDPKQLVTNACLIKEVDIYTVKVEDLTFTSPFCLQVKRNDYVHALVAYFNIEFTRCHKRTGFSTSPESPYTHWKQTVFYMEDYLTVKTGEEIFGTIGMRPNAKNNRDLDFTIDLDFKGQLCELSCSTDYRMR

[6] = Inhibition of Trypanosoma brucei PRMT7 by fluorescence-based SAHH-coupled assay
[7] = target: T1, Protein arginine N-methyltransferase 5; assay: Inhibition of human PRMT5 using H4R3 S1ac and [3H]-SAM as substrate by AlphaLISA assay
[8] = target: T1, Protein arginine N-methyltransferase 5; assay: Inhibition of PRMT5 (unknown origin) by AlphaLISA assay
[9] = target: T1, Protein arginine N-methyltransferase 5; assay: Inhibition of PRMT5 human PRMT5 using [3H]-SAM as substrate by radioactive methylation assay
Z-138 = assay: Antiproliferative activity against human Z138 cells assessed as cell growth inhibition measured every 4 days upto 8 days by Cell Titer-Glo Luminescent Cell Viability kit method; assay type: functional, cell-based
[10] = target: T2, Protein arginine N-methyltransferase 1; assay: Inhibition of human PRMT1 using H4R3 S1ac and [3H]-SAM as substrate by AlphaLISA assay
[11] = target: T3, Histone-arginine methyltransferase CARM1 (Homo sapiens, UniProt Q86X55); assay: Inhibition of human PRMT4 by fluorescence-based SAHH-coupled assay
T3 sequence (Q86X55 whole entry): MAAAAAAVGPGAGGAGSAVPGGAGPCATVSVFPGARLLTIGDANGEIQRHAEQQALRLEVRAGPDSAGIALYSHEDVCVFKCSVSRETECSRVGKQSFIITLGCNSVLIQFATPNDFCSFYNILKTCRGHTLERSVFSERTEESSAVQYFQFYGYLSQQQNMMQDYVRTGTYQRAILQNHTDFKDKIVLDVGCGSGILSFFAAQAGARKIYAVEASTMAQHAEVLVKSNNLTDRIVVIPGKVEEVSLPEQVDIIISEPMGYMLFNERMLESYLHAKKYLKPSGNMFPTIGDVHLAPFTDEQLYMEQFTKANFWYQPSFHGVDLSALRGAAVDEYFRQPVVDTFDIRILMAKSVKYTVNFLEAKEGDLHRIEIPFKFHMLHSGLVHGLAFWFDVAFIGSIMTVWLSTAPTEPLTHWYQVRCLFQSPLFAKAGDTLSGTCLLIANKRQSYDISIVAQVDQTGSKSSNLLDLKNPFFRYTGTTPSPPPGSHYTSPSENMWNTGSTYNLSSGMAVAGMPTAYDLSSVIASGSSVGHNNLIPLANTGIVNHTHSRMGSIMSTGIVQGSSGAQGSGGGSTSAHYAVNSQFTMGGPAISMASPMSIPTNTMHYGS

[12] = target: T1, Protein arginine N-methyltransferase 5; assay: Inhibition of human PRMT5 by fluorescence-based SAHH-coupled assay

T1 sequence (O14744 whole entry): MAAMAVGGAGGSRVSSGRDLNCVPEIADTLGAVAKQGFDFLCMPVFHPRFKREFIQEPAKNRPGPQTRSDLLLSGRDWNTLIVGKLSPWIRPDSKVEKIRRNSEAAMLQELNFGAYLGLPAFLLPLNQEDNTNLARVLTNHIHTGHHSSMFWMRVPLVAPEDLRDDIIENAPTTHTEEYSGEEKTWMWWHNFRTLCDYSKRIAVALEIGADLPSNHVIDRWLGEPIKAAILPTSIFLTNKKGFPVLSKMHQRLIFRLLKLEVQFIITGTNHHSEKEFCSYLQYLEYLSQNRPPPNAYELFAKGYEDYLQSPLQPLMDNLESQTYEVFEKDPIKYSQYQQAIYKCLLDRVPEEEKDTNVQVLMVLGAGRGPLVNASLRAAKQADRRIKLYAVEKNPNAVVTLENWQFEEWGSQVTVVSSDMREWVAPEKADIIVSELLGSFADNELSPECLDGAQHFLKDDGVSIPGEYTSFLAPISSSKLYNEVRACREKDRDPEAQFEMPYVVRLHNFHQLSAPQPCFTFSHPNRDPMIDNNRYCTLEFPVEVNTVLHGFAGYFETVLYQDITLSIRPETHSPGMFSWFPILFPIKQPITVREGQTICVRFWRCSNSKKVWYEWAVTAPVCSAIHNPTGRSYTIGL

SMILES: Nc1ncnc2c1ccn2[C@@H]1O[C@H]([C@H](O)c2ccccc2)[C@@H](O)[C@H]1O
IC50 (A-375 [2]): 0.0315 µM

SMILES: CCN(CC)CCNC1CCCc2c1[nH]c1ccc(C)cc21 (centres undefined)
IC50 [1]: 5.7 µM

SMILES: C[C@@H]1[C@H](O)[C@@H](CSCCCNC(=N)NCCCC[C@@H](N)C(N)=O)O[C@H]1n1cnc2c(N)ncnc21
IC50 [5]: 3 µM
IC50 [6]: 20 µM

SMILES: COc1cc(Br)cc(/C=C2\SC(c3ccc(C)cc3)=NC2=O)c1O
IC50 [7]: 6.6 µM

SMILES: N=C(N)NCCC[C@H](N)C(=O)NCC(=O)N[C@H](CCNC(=N)NCSC[C@H]1O[C@@H](n2cnc3c(N)ncnc32)[C@H](O)[C@@H]1O)C(N)=O
IC50 [5]: 1.7 µM
IC50 [6]: 0.59 µM

SMILES: C[C@@](O)(c1ccc(Cl)cc1)[C@H]1O[C@@H](n2ccc3c(N)ncnc32)[C@H](O)[C@@H]1O
IC50 (A-375 [2]): 0.044 µM

SMILES: COc1cc(Cl)cc(/C=C2\SC(c3ccc(C)cc3)=NC2=O)c1O
IC50 [7]: 13.9 µM

SMILES: N=C(N)NCCC[C@H](N)C(=O)NCC(=O)N[C@H](CCNC(=N)NCCSC[C@H]1O[C@@H](n2cnc3c(N)ncnc32)[C@H](O)[C@@H]1O)C(N)=O
IC50 [5]: 5.9 µM
IC50 [11]: 0.0028 µM
IC50 [12]: 0.00042 µM
IC50 [6]: 0.83 µM

Continued, in another order:

IC50 [1]: 1.7 µM
SMILES: Cc1ccc2[nH]c3c(c2c1)CCCC3NCCCOc1ccc(F)cc1 (centres undefined)

IC50 [3]: 34.1 µM
SMILES: COC(=O)c1ccccc1NC(=O)CCN1CCc2ccccc2C1

IC50 (A-375 [2]): 0.0108 µM
SMILES: Nc1ncnc2c1ccn2[C@@H]1O[C@H]([C@H](O)c2ccc(Cl)cc2)[C@@H](O)[C@H]1O
inhibition in vivo at 10 mg/kg (A-375 [4]): 64%

IC50 [8]: 8.1 µM
SMILES: COc1cccc(/C=N/c2ccc(O)c(-c3nc4cc(C)ccc4o3)c2)c1O

IC50 [8]: 6.5 µM
SMILES: CCOC(=O)c1c(NC(=O)CSc2nnc3c4ccccc4n(CCc4ccccc4)c3n2)sc2c1CCN(C)C2

IC50 [8]: 60 µM
SMILES: CCc1ccc2oc(-c3cc(/N=C/c4cccc(C)c4O)ccc3O)nc2c1

IC50 [9]: 34 µM
SMILES: Nc1cccc(-c2cn(CC(O)CN3CCc4ccccc4C3)nn2)c1 (centres undefined)

IC50 [8]: 27 µM
SMILES: COc1ccc(OC)c(NC(=O)CSc2nnc3c4ccccc4c4ccccc4c3n2)c1

IC50 [9]: 2.4 µM
SMILES: OC(CN1CCc2ccccc2C1)Cn1cc(-c2cccc(NC3CCOCC3)c2)nn1 (centres undefined)

IC50 [9]: 0.72 µM
SMILES: OC(CN1CCc2ccccc2C1)Cn1cc(-c2cccc(NC3CCC3)c2)nn1 (centres undefined)
IC50 (Z-138): 2.6 µM

IC50 [10]: 10 µM
IC50 [7]: 0.77 µM
SMILES: Cc1ccc(C2=NC(=O)/C(=C/c3ccc(O)c(O)c3)S2)cc1

IC50 [9]: 5.5 µM
SMILES: O=[N+]([O-])c1cccc(-c2cn(CC(O)CN3CCc4ccccc4C3)nn2)c1 (centres undefined)

IC50 [1]: 0.33 µM
SMILES: COC(=O)c1ccccc1NC(=O)CSc1nc2ccc(CO)cc2[nH]1
